Assay results from paper PMC9227231, “TP-CSO: A Triptolide Prodrug for Pancreatic Cancer Treatment” (Molecules, 2022).

Experiments:
[1] = In vivo toxicity in healthy C57 mice
Procedure: The 30 normal C57 mice (20–25 g) were randomly divided into a normal saline group, TP (0.4 mg/kg) group and TP-CSO group (equivalent TP of 0.2, 0.4 and 0.6 mg/kg), respectively. The drugs were administered by a gavage once every two days for seven times. The body weight and fatality rate were recorded daily. On the 14th day, blood was collected from the eyes, and the organs were harvested after the mice were euthanized. A Beckman CX5 automated analyzer detected renal function indexes, liver function indexes (serum alanine aminotransferase (ALT), aspartic aminotransferase (AST)), and (blood urea nitrogen (BUN) creatinine (CRE)).

[2] = test system: Panco2 tumor; assay: In vivo antitumor study in Panco2 tumor-bearing mice
Procedure: The antitumor activity of the TP-CSO conjugate was evaluated on Panco2 tumor-bearing mice. First, C57 mice (20–25 g) were implanted subcutaneously with 2 × 10^6 Panco2 cells. When the tumor grew up to about 100 mm^3, the mice were orally administrated with 0.4 mg/kg TP and TP-CSO (0.2, 0.4 and 0.6 mg TP equivalent/kg) once every two days, respectively. The body weight and fatality rate were recorded. Mice in control groups were orally administrated with saline solution. The tumor volume was measured with calipers and calculated by the (1/2) (a × b²) formula (a is long diameter, b is short diameter). After 14 days of intragastric administration, the mice were sacrificed, and livers, kidney, and tumors were harvested.

[3] = Pharmacokinetics after gavage administration to rats (plasma level of free TP by LC-MS); set-up: species or system SD rats; details: Sprague-Dawley, rat, in vivo, po, 0.4 mg/kg
Procedure: To evaluate the in vivo pharmacokinetics of TP-CSO conjugate, the SD rats (250–300 g, Sprague-Dawley rat) fasted 12 h in advance and were randomized into two groups (n = 5) and respectively treated with TP (0.4 mg/kg) and TP-CSO (0.4 mg/kg, TP equivalent). The blood samples (500 µL) were collected through the ocular chorionic vein at 5, 15, 30, 60, 120, 180, 240, 360, 480 and 720 min after intragastric administration. Subsequently, the samples were immediately centrifuged at 3500 rpm for 15 min. An upper plasma sample was collected and kept at −80 °C.
Sample processing: to the plasma sample,10 µL of ferulic acid (2.5 ng/mL) was added as internal standard. The sample (100 µL) was placed in a 1.5 mL Eppendorf tube, to which 800 µL of ethyl acetate was added and vortexed for 3 min, and this was centrifuged at 12,000 rpm for 15 min. The upper solution was taken and blow dried with nitrogen at room temperature. The dried residue was dissolved in 100 µL of methanol-water (60:40, v/v) solution, vortexed for 3 min, subsequently centrifuged at 12,000 rpm for 15 min at 4 °C and the upper solution was collected into a 2 mL vial.
10 μL of sample was injected into a Watets C-18 column (2.1 mm × 50 mm, 1.8 µm) on a Sciex X500R QTOF Mass Spectrometer (UPLC-MS; Framingham, MA, USA). The column was eluted with methanol (A)/water (B) solution at a flow rate of 0.3 mL/min and a column temperature of 35 °C (0–6 min, A: 40%–90%; 6–8.1 min, A: 90%; 8.1–10 min, A: 40%). The operating conditions of UPLC-MS are as follows: electrospray ionization source (ESI), negative ionization mode; Ion spray voltage (ISV), 3500 V; Drying temperature, 325 °C; Flow rate of desolvent gas, 8.0 L/min; Atomization temperature, 350 °C. The pyrolysis energy and impact energy of TP were 120 V and 10 V, respectively, and those of ferulic acid were 90 V and 10 V, respectively. A multiple reaction monitoring mode (MRM) was used to monitor the transformation of TP from m/z [M-H] 359.1→241.1 and ferulic acid m/z [M-H] 193.1→134.1 to productions.

[4] = healthy C57 mice, day 14, 0.4 mg/kg TP equivalent (medium dose)

## CC(C)[C@]12O[C@H]1[C@@H]1O[C@]13[C@]1(O[C@H]1C[C@H]1C4=C(CC[C@@]13C)C(=O)OC4)[C@@H]2O [TP, Triptolide]
[1]; [4]
  BUN and CRE levels: significantly lower than in the control group
  serum ALT and AST levels: obviously higher than those in other groups
[1]; healthy C57 mice, gavage once every two days x7, 0.4 mg/kg TP equivalent (medium dose)
  body weight vs control group: obvious body weight loss but without lethality
[1]; mice, preliminary experiments
  minimum dose causing the death of mice: about 0.6 mg/kg
[2]; Panco2-bearing mice, oral once every two days, end of study, 0.4 mg TP equivalent/kg (medium dose)
  tumor-inhibition rate (TIR): 43.39%
[2]; mouse, in vivo, po, 0.4 mg/kg
  body weight vs control group: obvious decrease in body weight
[3]
  AUC(0-inf): 0.061 ng·h/mL
  Cmax: 0.021 ng/mL
  Tmax: 15 min
  half-life: 42.6 min
